Results taken from article PMC6889490, “General structural features that regulate integrin affinity revealed by atypical αVβ8” (Nature Communications, 2019).

Tested on: αVβ8 headpiece
Assay: Hydrogen-deuterium exchange MS, αVβ8 headpiece
Conditions: 2.20 µM αVβ8, 6.67 µM TGF-β1 ligand peptide; from KD
Method: Two microliters of αVβ6 and αVβ8 stock solutions (23 and 33 µM, respectively), either alone or mixed with 100 µM TGF-β1 ligand peptide, were diluted 15-fold (to 1.53 and 2.20 µM, αVβ6 and αVβ8, respectively, and 6.67 µM TGF-β1 ligand peptide) with labeling buffer (Supplementary Table 1) at 21 °C to initiate deuterium exchange. […] At time points from 10 s to 240 m, an aliquot was removed and an equal volume of quench buffer (Supplementary Table 1) was added to adjust the pH to 2.5. Each sample (46 pmol αVβ6 or 66 pmol αVβ8) was immediately subjected to liquid chromatography-mass spectrometry analysis as described in the next paragraphs and in our PRIDE submission (PXD014348). For binding experiments, protein and ligand were allowed to equilibrate for 20 min at 21 °C before deuterium labeling.
Deuterated and control samples were digested in solution with pepsin (10 mg/ml, Sigma P6887; Lot#SLBL1721V) for 5 min on ice, and then injected into an M-class Acquity UPLC with HDX technology (Waters)[32]. […]
Peptides were identified using PLGS 3.0.1 (Waters, 720001408EN) using six replicates of undeuterated αVβ6 and six replicates of undeuterated αVβ8. […] The relative amount of deuterium in each peptide was determined by subtracting the centroid mass of the undeuterated form of each peptide from the deuteratered form, at each time point, for each condition. […]

predicted binding to integrin: 99.6%
Substance: G^213RRGDLATIHG^223 [TGF-β1 ligand peptide]
